The results in this text go back to patent US20260144880A1 (priority 2018, published 2026).

One data set in a line: in vitro. The conditions noted are these: human.
The test system of data set [1] is Neuraminidase transfected HEK 293 cells.
The subject of data set [2] is influenza virus A/Puerto Rico/8/1934 (H1N1). It counts as in vivo, BALB/c mice. Particulars: DNP-KLH immunized mice, 1.5 μmol/kg intranasally one time a day for five days, 100 LD50.
In data set [3] the test system is Neuraminidase transfected HEK 293 cells. Type of data set: binding.
Data set [4] relates to A/Aichi/2/1968 (HA, NA), x-31b (H3N2) virus. Details: species or system mice. Particulars: mouse, in vivo, ip.
Data set [5] concerns 293NA cells (HEK 293 cells that express NA). It counts as cell-based.
The test system of a further data set is A/Puerto Rico/8/34. Details: species or system mice. The conditions noted are these: mouse, in vivo, ip.
Data set [6] relates to A/Aichi/2/1968 (HA, NA), x-31b (H3N2) virus. Further details: species or system mice. Particulars: mouse, in vivo.

Read-outs that look alike come from different tables or passages of the source.

Usually EC50 stands for the concentration needed to bring the measured effect to its halfway point. Read a low EC50 as greater potency. Regarding `CCCC(=O)OCN(C(=O)[C@@H](NC(=O)[C@H]1CCCCN1C)C(C)CC)[C@H](C[C@@H](OC(C)=O)c1nc(C(=O)N[C@@H](Cc2ccc(O)cc2)C[C@H](C)C(=O)NNC(=O)OCCSSC[C@H](NC(=O)[C@H](CC(=O)O)NC(=O)[C@@H](N)CNC(=O)CCC(=O)N2Cc3ccccc3-c3c(nnn3CCOCCOCCOCCNC(=O)O[C@@H]([C@@H]3OC(C(=O)O)=C[C@H](NC(=N)N)[C@H]3NC(C)=O)[C@H](O)CO)-c3ccccc32)C(=O)O)cs1)C(C)C` (stereo partly drawn), the midpoint of the response in the data set “in vitro”, the EC50, lay at 5.2 nM. Further, in data set [1], the “reduction of cytotoxicity by blocking neuraminidase binding sites” value was more than 30 fold.

Usually Kd stands for a measure of binding affinity in units of concentration. A low value points to higher affinity. In the case of `CC(=O)N[C@H]1[C@H]([C@H](O)[C@H](O)CO)OC(C(=O)O)=C[C@@H]1N=C(N)N` [zanamivir], the “survival (protection from lethal virus challenge)” value in data set [2] was determined as 60%. Besides, the Kd in data set [3] is approximately 0.77 nM. Also, the “protection 14 days post infection” value (in data set [4]; in the data set with A/Puerto Rico/8/34; in data set [6]) was “does not provide the same protection” throughout. Also, the “% of killing (LDH)” value in data set [5] was “no killing”.

In turn, Tubulysin B hydrazide had an EC50 in data set [1] of 9.9 nM.
